Reference: patent publication US7740850B2, “PDGFRβ-specific antibodies” (ImClone, LLC, priority 2007, dated 2010)

Tests used:
Format in all cases: binding
Settings in all cases: ✓ / X, key not given
2β3α = test: Epitope mapping, PDGFRβ/α chimera
Protocol: (§1) Various chimeric constructs of PDGFRβ and PDGFRα were first made by domain swapping, starting from N-terminus to C-terminus with PDGFRβ domain(s) replacing PDGFRα domain(s). The PDGFRβ/α chimera were tested for the ability of 2C5 binding. Shorter versions of PDGFRβ, including D1D2, D2D3 and D1D2D3, were then made to confirm the 2C5 binding domains on PDGFRβ.

4β1α = test: Epitope mapping, PDGFRβ/α chimera
Protocol: as §1, with “2C5 binds to domain 1 (D1) and domain 2 (D2) of PDGFRβ. Various” for “Various”

3β2α = test: Epitope mapping, PDGFRβ/α chimera
Protocol: as §1, with “2C5 binds to domain 1 (D1) and domain 2 (D2) of PDGFRβ. Various” for “Various”

h5α = h5α (Homo sapiens, UniProt P16234); test: Epitope mapping
Protocol: as §1

m5β = target: T1, m5β (Mus musculus, UniProt P05622); test: Epitope mapping
T1 sequence (P05622 32-531 limits assumed): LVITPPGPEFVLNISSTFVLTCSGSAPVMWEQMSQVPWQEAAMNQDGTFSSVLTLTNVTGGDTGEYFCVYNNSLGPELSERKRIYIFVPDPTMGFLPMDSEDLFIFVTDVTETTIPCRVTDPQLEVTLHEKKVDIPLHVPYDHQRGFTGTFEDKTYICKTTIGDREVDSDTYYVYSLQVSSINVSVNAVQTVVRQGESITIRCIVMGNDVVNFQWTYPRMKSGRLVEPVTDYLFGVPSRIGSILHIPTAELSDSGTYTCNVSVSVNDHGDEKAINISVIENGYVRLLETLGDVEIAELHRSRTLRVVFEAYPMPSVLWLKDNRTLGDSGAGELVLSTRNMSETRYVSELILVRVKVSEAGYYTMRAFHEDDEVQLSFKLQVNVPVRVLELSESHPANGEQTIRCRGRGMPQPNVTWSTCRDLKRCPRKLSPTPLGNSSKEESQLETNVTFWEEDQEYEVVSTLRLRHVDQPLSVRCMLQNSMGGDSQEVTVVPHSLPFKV
Protocol: as §1, with “2C5 binds to domain 1 (D1) and domain 2 (D2) of PDGFRβ. Various” for “Various”

β1-3 = test: Epitope mapping, shorter version of PDGFRβ (D1D2D3)
Protocol: as §1, with “2C5 binds to domain 1 (D1) and domain 2 (D2) of PDGFRβ. Various” for “Various”

Sequence of h5α (P16234 24-528 limits assumed): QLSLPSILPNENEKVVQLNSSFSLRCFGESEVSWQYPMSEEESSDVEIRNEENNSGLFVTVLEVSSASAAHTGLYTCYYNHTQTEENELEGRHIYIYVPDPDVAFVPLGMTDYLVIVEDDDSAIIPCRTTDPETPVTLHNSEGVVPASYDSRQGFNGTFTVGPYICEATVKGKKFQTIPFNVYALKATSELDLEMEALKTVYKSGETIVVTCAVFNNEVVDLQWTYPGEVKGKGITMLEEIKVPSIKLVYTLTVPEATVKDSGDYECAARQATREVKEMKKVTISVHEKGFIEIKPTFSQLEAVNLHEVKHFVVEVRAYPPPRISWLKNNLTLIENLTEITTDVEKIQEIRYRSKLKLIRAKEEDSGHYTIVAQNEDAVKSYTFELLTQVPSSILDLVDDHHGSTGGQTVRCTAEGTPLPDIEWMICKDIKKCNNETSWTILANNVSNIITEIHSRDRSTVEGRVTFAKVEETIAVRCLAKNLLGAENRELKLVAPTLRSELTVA

- binding to 2β3α (2β3α): ✓
- binding to 4β1α (4β1α): ✓
- binding to 3β2α (3β2α): ✓
- binding to h5α (h5α): ✓
- binding to m5β (m5β): ✓
- binding to β1-3 (β1-3): ✓
Substance: PDGF-BB: platelet-derived growth factor dimer, ligand of PDGFRβ and PDGFRα [reference compound]
